{"source": "patent US7369696B2", "about": "“Classification of cells into subpopulations using cell classifying data” (GE Healthcare UK Limited, priority 2003, dated 2008)", "tested_on": "U2OS cells (ATCC HTB-96) transfected with cyclin B1 promoter/D-box/CRS-GFP cell cycle reporter construct", "experiment": "Effect of cell cycle blocking agents on GFP fluorescence from cell cycle phase marker, transiently transfected cells", "assay_type": "cell-based", "conditions": "U2OS cells 24 hours after transfection, exposed to blocker for a further 24 hours; confocal scanning imager with automated image analysis; control = culture media alone", "procedure": "U2OS cells (ATCC HTB-96) were cultured in wells of a 96 well microtitre plate. Cells were transfected with a cell cycle reporter construct prepared according to Example 1, comprising a cyclin B1 promoter operably linked to sequences encoding the cyclin B1 D-box, the cyclin B1 CRS, and GFP in a pCORON4004 vector (Amersham Biosciences) using Fugene 6 (Roche) as the transfection agent.\nFollowing 24 hours of culture, cells were exposed to the specific cell cycle blockers mimosine (blocks at G1/S phase boundary) or demecolcine (blocks in M phase). Control cells were exposed to culture media alone.\nCells were incubated for a further 24 hours and then analysed for nuclear GFP expression using a confocal scanning imager with automated image analysis (IN Cell Analysis System, Amersham Biosciences).", "data": [{"smiles": "CN[C@H]1CCc2cc(OC)c(OC)c(OC)c2-c2ccc(OC)c(=O)cc21", "note": "[demecolcine]", "values": [{"measurement": "nuclear GFP expression (fluorescence) compared to control cells", "value": "increased fluorescence compared to control cells"}]}, {"smiles": "NC(Cn1ccc(=O)c(O)c1)C(=O)O", "note": "(centres unmarked) [mimosine]", "values": [{"measurement": "nuclear GFP expression (fluorescence) compared to control cells", "value": "decreased fluorescence compared to control cells"}]}]}
